Assays:
[1] = test system: barnyardgrass; assay: Test A pre-/postemergence herbicide test; assay type: in vivo, Echinochloa crus-galli
Procedure, shortened: (§1)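 Sandy loam soil given preemergence directed spray; plants at 2 to 10 cm, one- to two-leaf stage, sprayed to runoff postemergence, compounds in non-phytotoxic solvent with surfactant. Injury rated visually versus untreated controls after about ten greenhouse days, 0 (no effect) to 100 (complete control); dash means not tested.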

[2] = test system: large crabgrass; assay: Test A pre-/postemergence herbicide test; assay type: in vivo, Digitaria sanguinalis
Procedure, shortened: as §1

[3] = test system: giant foxtail; assay: Test A pre-/postemergence herbicide test; assay type: in vivo, Setaria faberi
Procedure, shortened: as §1

[4] = test system: morningglory; assay: Test A pre-/postemergence herbicide test; assay type: in vivo, Ipomoea spp.
Procedure, shortened: as §1

[5] = test system: redroot pigweed; assay: Test A pre-/postemergence herbicide test; assay type: in vivo, Amaranthus retroflexus
Procedure, shortened: as §1

[6] = test system: velvetleaf; assay: Test A pre-/postemergence herbicide test; assay type: in vivo, Abutilon theophrasti
Procedure, shortened: as §1

[7] = test system: barnyardgrass; assay: Test B pre-/postemergence herbicide test; assay type: in vivo, Echinochloa crus-galli; details: for Barnyardgrass plant response rating: postemergence
Procedure, shortened: (§2)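 Evaluation is visual, comparing treated with control plants on a scale where 0 means no effect and 100 means full control. Treatments were preemergence, or postemergence on seedlings 2–18 cm tall, and held 13–15 days in the greenhouse.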

[8] = test system: Surinam grass; assay: Test B pre-/postemergence herbicide test; assay type: in vivo, Urochloa decumbens; details: for Surinam Grass plant response rating: postemergence
Procedure, shortened: (§3)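 Formulation: non-phytotoxic solvent mix with surfactant. Timing: preemergence on seed and postemergence on 2–18 cm plants, applied concurrently. Readout after 13–15 d greenhouse: visual 0–100 control rating against controls.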

[9] = test system: cocklebur; assay: Test B pre-/postemergence herbicide test; assay type: in vivo, Xanthium strumarium; details: for Cocklebur plant response rating: postemergence
Procedure, shortened: as §2

[10] = test system: corn; assay: Test B pre-/postemergence herbicide test; assay type: in vivo, Zea mays; details: for Corn plant response rating: postemergence
Procedure, shortened: as §3

[11] = test system: large crabgrass; assay: Test B pre-/postemergence herbicide test; assay type: in vivo, Digitaria sanguinalis; details: for Crabgrass, Large plant response rating: postemergence
Procedure, shortened: as §3

[12] = test system: giant foxtail; assay: Test B pre-/postemergence herbicide test; assay type: in vivo, Setaria faberi; details: for Foxtail, Giant plant response rating: postemergence
Procedure, shortened: as §3

[13] = test system: lambsquarters; assay: Test B pre-/postemergence herbicide test; assay type: in vivo, Chenopodium album; details: for Lambsquarters plant response rating: postemergence
Procedure, shortened: as §3

[14] = test system: morningglory; assay: Test B pre-/postemergence herbicide test; assay type: in vivo, Ipomoea coccinea; details: for Morningglory plant response rating: postemergence
Procedure, shortened: as §2

[15] = test system: pigweed; assay: Test B pre-/postemergence herbicide test; assay type: in vivo, Amaranthus retroflexus; details: for Pigweed plant response rating: postemergence
Procedure, shortened: as §3

[16] = test system: rice; assay: Test B pre-/postemergence herbicide test; assay type: in vivo, Oryza sativa; details: 0 = no effect, 100 = complete control, preemergence
Procedure, shortened: as §3

[17] = test system: velvetleaf; assay: Test B pre-/postemergence herbicide test; assay type: in vivo, Abutilon theophrasti; details: for Velvetleaf plant response rating: postemergence
Procedure, shortened: as §3

[18] = test system: blackgrass; assay: Test B postemergence herbicide test; assay type: in vivo, Alopecurus myosuroides; details: postemergence
Procedure, shortened: (§4)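 Each value is a visual 0–100 response rating taken against controls 13 to 15 days after treatment in the greenhouse. Plants received formulated chemical postemergence at the 1- to 4-leaf stage or, in flooded paddy, at the 2-leaf stage.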

[19] = test system: wheat; assay: Test B postemergence herbicide test; assay type: in vivo, Triticum aestivum; set-up: key to Wheat plant response rating: 0 = no effect, 100 = complete control; details: postemergence
Procedure, shortened: (§5)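 Greenhouse test; postemergence application to plants at 1–4 leaves (2–18 cm); paddy species at 2 leaves; evaluated visually vs controls at 13–15 days; scale 0–100 (100 = complete control).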

[20] = test system: wild oat; assay: Test B postemergence herbicide test; assay type: in vivo, Avena fatua; details: postemergence
Procedure, shortened: as §5

[21] = test system: rice; assay: Test B flooded paddy test; assay type: in vivo, Oryza sativa; details: 1000 g ai/ha, scale 0 to 100 (0 no effect, 100 complete control)
Procedure, shortened: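 Scale 0–100: zero equals no visible effect, 100 complete control, judged by eye relative to controls. Timing: 13 to 15 days in greenhouse post-treatment. Growth stage at spraying: two leaves (paddy) or one to four leaves, 2–18 cm (postemergence).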

[22] = test system: small flower umbrella sedge; assay: Test B flooded paddy test; assay type: in vivo, Cyperus difformis; details: 1000 g ai/ha, scale 0 to 100 (0 no effect, 100 complete control)
Procedure, shortened: as §4

[23] = test system: ducksalad; assay: Test B flooded paddy test; assay type: in vivo, Heteranthera limosa; details: 1000 g ai/ha, scale 0 to 100 (0 no effect, 100 complete control)
Procedure, shortened: as §4

[24] = test system: barnyardgrass; assay: Test B flooded paddy test; assay type: in vivo, Echinochloa crus-galli; details: 1000 g ai/ha, scale 0 to 100 (0 no effect, 100 complete control)
Procedure, shortened: as §4

[25] = Postemergence, 500 g ai/ha, 0 to 100 scale, 0 no effect, 100 complete control
[26] = Postemergence, 2000 g ai/ha, 0 to 100 scale, 0 no effect, 100 complete control
[27] = Preemergence, 2000 g ai/ha, visual rating, 0 to 100 scale (0 no effect, 100 complete control)
[28] = preemergence, 500 g ai/ha, visual injury, 0 to 100 scale (0 no effect, 100 complete control)
[29] = 125 g ai/ha, 0 = no effect, 100 = complete control, preemergence
[30] = 125 g ai/ha, visual rating, scale 0 (no effect) to 100 (complete control)
[31] = 500 g ai/ha, visual rating, 0 = no effect, 100 = complete control, preemergence
[32] = 500 g ai/ha, scale 0 to 100, 0 is no effect, 100 is complete control

Structure (SMILES): C#CCNC(=O)c1cncc(NC(=O)c2cc(C(C)(C)C)nn2CC)n1 [Compound 289]
- Barnyardgrass plant response rating [1, 25]: 10
- Plant response rating, Barnyardgrass [1, 26]: 40
- Barnyardgrass plant response rating [1, 27]: 50
- Barnyardgrass plant response rating [1, 28]: 0
- Crabgrass, Large plant response rating [2, 25]: 20
- Plant response rating, Crabgrass, Large [2, 26]: 20
- Crabgrass, Large plant response rating [2, 27]: 55
- Crabgrass, Large plant response rating [2, 28]: 0
- Foxtail, Giant plant response rating [3, 25]: 10
- Plant response rating, Foxtail, Giant [3, 26]: 70
- Foxtail, Giant plant response rating [3, 27]: 40
- Foxtail, Giant plant response rating [3, 28]: 10
- Morningglory plant response rating [4, 25]: 10
- Plant response rating, Morningglory [4, 26]: 20
- Morningglory plant response rating [4, 27]: 15
- Morningglory plant response rating [4, 28]: 0
- Pigweed plant response rating [5, 25]: 20
- Plant response rating, Pigweed [5, 26]: 50
- Pigweed plant response rating [5, 27]: 75
- Pigweed plant response rating [5, 28]: 0
- Velvetleaf plant response rating [6, 25]: 0
- Plant response rating, Velvetleaf [6, 26]: 5
- Velvetleaf plant response rating [6, 27]: 20
- Velvetleaf plant response rating [6, 28]: 0
- Barnyardgrass plant response rating (0 to 100 scale) [7, 29]: 0
- Barnyardgrass plant response rating [7, 30]: 0
- Plant response rating, Barnyardgrass [7, 31]: 0
- Barnyardgrass plant response rating [7, 32]: 0
- Surinam Grass plant response rating (0 to 100 scale) [8, 29]: 0
- Surinam Grass plant response rating [8, 30]: 0
- Plant response rating, Surinam Grass [8, 31]: 0
- Surinam Grass plant response rating [8, 32]: 0
- Cocklebur plant response rating (0 to 100 scale) [9, 29]: 0
- Cocklebur plant response rating [9, 30]: 0
- Plant response rating, Cocklebur [9, 31]: 0
- Cocklebur plant response rating [9, 32]: 0
- Corn plant response rating (0 to 100 scale) [10, 29]: 0
- Corn plant response rating [10, 30]: 0
- Plant response rating, Corn [10, 31]: 0
- Corn plant response rating [10, 32]: 0
- Crabgrass, Large plant response rating (0 to 100 scale) [11, 29]: 0
- Crabgrass, Large plant response rating [11, 30]: 0
- Plant response rating, Crabgrass, Large [11, 31]: 20
- Crabgrass, Large plant response rating [11, 32]: 0
- Foxtail, Giant plant response rating (0 to 100 scale) [12, 29]: 0
- Foxtail, Giant plant response rating [12, 30]: 20
- Plant response rating, Foxtail, Giant [12, 31]: 0
- Foxtail, Giant plant response rating [12, 32]: 60
- Lambsquarters plant response rating (0 to 100 scale) [13, 29]: 0
- Lambsquarters plant response rating [13, 30]: 0
- Plant response rating, Lambsquarters [13, 31]: 100
- Lambsquarters plant response rating [13, 32]: 30
- Morningglory plant response rating (0 to 100 scale) [14, 29]: 0
- Morningglory plant response rating [14, 30]: 0
- Plant response rating, Morningglory [14, 31]: 0
- Morningglory plant response rating [14, 32]: 0
- Pigweed plant response rating (0 to 100 scale) [15, 29]: 0
- Pigweed plant response rating [15, 30]: 10
- Plant response rating, Pigweed [15, 31]: 100
- Pigweed plant response rating [15, 32]: 20
- Rice plant response rating (0 to 100 scale) ([16]; 125 g ai/ha): 0
- Plant response rating, Rice ([16]; 500 g ai/ha, visual rating): 0
- Velvetleaf plant response rating [17, 30]: 0
- Plant response rating, Velvetleaf [17, 31]: 0
- Velvetleaf plant response rating [17, 32]: 10
- Blackgrass plant response rating [18, 30]: 10
- Blackgrass plant response rating [18, 32]: 10
- Wheat plant response rating [19, 30]: 20
- Wheat plant response rating [19, 32]: 20
- Oat, Wild plant response rating [20, 30]: 20
- Oat, Wild plant response rating [20, 32]: 30
- Rice plant response rating [21]: 0
- Sedge, Umbrella plant response rating [22]: 0
- Ducksalad plant response rating [23]: 0
- Barnyardgrass plant response rating [24]: 0
